Source: patent US5674490A, “Antibiotic GE1655 complex and its factors A, B, and C” (Gruppa Lepetit S.p.A., priority 1995, dated 1997)

Test system: Candida albicans L145
Assay: Candida vaginitis in ovariectomized rats
Format: in vivo, ovariectomized female CD rats
Conditions: for Mean log10 cfu ± SD/sample: i.va. twice daily, after 3 days of treatment, GE1655 complex 10, miconazole 4 mg/rat per treat.
Procedure: The in vivo protective activity of the antibiotic GE1655 complex against Candida albicans in ovariectomized female CD rats (weighing 150-170 g, obtained from Charles River 7 days after surgery) was determined. Candida albicans L145 was grown overnight in Sabouraud dextrose broth (Difco) at 30° C. The culture was centrifuged at 6000 r.p.m. for 20 min at 4° C., the yeast was resuspended in nutrient broth N.2 (Oxoid) containing 15% (v/v) glycerol and stored at -80° C. After 7 days of acclimatization in a temperature and humidity controlled room, the animals received 4 mg of estradiol benzoate (Sigma) subcutaneously. Four days later they were infected by intravaginal (i.va.) instillation with 0.025 ml of thawed Candida albicans suspension (about 5×10^6 cfu/rat).
GE1655 complex and miconazole (Sigma) were dissolved in dimethylsulfoxide (DMSO) and then diluted 1:10 with PEG 400; this risulted in homogeneous suspensions. Animals received 0.1 ml of one of these suspensions i.va. twice daily for three days starting 24 h after the infection. Control animals were treated with the vehicle (10% DMSO in PEG 400).
The presence of Candida was determined by inserting a disposable 0.01 ml calibrated loop into the vagina. The sample was resuspended in 0.2 ml of sterile peptonized saline and cultivated on Sabouraud dextrose agar containing 100 mg/l of rifampicin to inhibit growth of bacterial contaminants.

## Clc1ccc(COC(Cn2ccnc2)c2ccc(Cl)cc2Cl)c(Cl)c1 (stereo not drawn) [Miconazole, miconazole]
2 experiments, 10 mg of GE1655 complex or 4 mg of miconazole
  vaginal load compared with the control group: significantly lower (p<0.01)
exp. 1
  Mean log10 cfu ± SD/sample: 1.20 ± 1.01 log10 cfu/sample
exp. 2
  Mean log10 cfu ± SD/sample: 1.24 ± 0.86 log10 cfu/sample
